How the values were obtained:
Assay in all cases: Ray2010 Assay 74
[1] = molecular target: Cannabinoid receptor 1 (Homo sapiens, UniProt P21554)
Excerpt: (§1) Table S2 shows raw Ki data for the current study combined with data collected from the literature for the ten additional compounds.

[2] = molecular target: Kappa-type opioid receptor (Homo sapiens, UniProt P41145)
Excerpt: as §1

[3] = molecular target: Nischarin (Homo sapiens, UniProt Q9Y2I1)
Excerpt: as §1

[4] = molecular target: T1, Muscarinic acetylcholine receptor M4 (Homo sapiens, UniProt P08173)
T1 sequence (P08173 whole entry): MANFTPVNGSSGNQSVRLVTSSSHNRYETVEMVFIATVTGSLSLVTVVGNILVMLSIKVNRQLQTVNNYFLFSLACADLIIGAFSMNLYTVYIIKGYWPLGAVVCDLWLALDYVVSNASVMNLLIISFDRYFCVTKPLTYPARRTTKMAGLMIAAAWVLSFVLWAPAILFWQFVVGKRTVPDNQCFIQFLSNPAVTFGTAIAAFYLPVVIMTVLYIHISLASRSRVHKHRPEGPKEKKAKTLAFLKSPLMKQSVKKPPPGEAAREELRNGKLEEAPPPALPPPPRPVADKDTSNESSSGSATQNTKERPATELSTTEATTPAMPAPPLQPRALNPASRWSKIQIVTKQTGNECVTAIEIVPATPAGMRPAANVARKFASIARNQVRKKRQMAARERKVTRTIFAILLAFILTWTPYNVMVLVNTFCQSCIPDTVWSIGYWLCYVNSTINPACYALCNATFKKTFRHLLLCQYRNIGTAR
Excerpt: as §1

[5] = molecular target: T2, Gamma-aminobutyric acid receptor subunit alpha-1/Adenosine receptor A1 (Homo sapiens, UniProt P14867+P30542)
T2 sequence (P30542 whole entry): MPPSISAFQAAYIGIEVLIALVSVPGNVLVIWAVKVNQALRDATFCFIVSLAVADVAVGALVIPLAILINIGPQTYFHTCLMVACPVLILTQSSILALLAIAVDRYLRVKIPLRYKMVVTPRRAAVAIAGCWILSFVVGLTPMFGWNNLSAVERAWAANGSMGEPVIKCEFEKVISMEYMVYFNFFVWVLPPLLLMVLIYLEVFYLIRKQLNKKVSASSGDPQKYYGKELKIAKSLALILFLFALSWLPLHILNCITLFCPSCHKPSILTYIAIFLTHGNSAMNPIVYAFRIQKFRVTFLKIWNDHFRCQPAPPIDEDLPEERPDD
T2 sequence (P14867 whole entry): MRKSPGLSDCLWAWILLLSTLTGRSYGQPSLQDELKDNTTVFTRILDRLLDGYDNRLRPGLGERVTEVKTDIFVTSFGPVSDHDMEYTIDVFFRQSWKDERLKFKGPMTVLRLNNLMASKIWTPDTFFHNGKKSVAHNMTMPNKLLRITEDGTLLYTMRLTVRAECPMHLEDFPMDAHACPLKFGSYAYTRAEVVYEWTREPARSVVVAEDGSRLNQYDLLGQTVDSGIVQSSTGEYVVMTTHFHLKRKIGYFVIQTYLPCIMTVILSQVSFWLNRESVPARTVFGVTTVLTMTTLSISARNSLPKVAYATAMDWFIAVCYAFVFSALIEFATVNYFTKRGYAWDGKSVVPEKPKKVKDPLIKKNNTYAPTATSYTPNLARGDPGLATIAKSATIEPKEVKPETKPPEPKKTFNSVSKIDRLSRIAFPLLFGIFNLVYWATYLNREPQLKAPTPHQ
Excerpt: as §1

[6] = molecular target: D(1B) dopamine receptor (Homo sapiens, UniProt P21918)
Excerpt: as §1

[7] = molecular target: T3, 5-hydroxytryptamine receptor 3A (Homo sapiens, UniProt P46098)
T3 sequence (P46098 whole entry): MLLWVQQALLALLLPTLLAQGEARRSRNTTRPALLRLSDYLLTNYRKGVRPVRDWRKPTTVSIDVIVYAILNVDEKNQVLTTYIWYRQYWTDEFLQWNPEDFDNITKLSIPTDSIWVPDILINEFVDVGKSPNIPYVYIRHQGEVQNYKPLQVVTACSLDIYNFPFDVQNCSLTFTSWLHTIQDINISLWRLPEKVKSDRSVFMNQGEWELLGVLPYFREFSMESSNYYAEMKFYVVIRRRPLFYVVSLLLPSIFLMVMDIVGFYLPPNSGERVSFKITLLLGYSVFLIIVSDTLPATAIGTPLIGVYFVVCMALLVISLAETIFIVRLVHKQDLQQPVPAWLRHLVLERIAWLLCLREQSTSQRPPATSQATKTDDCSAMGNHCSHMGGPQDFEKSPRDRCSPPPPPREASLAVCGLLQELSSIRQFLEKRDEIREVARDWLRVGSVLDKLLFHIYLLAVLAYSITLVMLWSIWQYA
Excerpt: as §1

[8] = molecular target: 5-hydroxytryptamine receptor 5A (Homo sapiens, UniProt P47898)
Excerpt: as §1

[9] = molecular target: Voltage-dependent calcium channel subunit alpha-2/delta-1 (Homo sapiens, UniProt P54289)
Excerpt: as §1

[10] = molecular target: Cannabinoid receptor 2 (Homo sapiens, UniProt P34972)
Excerpt: as §1

[11] = molecular target: T4, Muscarinic acetylcholine receptor M5 (Homo sapiens, UniProt P08912)
T4 sequence (P08912 whole entry): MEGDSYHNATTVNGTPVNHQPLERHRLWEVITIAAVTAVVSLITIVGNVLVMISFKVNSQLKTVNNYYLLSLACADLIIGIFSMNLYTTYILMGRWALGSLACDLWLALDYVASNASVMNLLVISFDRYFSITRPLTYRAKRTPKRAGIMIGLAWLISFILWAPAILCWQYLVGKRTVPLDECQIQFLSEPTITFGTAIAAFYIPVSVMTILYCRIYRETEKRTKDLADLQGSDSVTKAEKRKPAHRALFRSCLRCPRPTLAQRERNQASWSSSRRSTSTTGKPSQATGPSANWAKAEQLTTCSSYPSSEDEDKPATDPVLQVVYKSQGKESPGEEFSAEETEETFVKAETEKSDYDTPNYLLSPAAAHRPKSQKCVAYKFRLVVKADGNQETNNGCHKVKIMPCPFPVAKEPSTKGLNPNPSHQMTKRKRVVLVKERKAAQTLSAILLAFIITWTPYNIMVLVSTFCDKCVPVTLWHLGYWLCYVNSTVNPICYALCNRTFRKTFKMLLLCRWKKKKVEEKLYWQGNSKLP
Excerpt: as §1

[12] = molecular target: 5-hydroxytryptamine receptor 1B (Homo sapiens, UniProt P28222)
Excerpt: as §1

[13] = molecular target: 5-hydroxytryptamine receptor 2A (Homo sapiens, UniProt P28223)
Excerpt: as §1

[14] = molecular target: D(1A) dopamine receptor (Homo sapiens, UniProt P21728)
Excerpt: as §1

[15] = molecular target: Histamine H1 receptor (Homo sapiens, UniProt P35367)
Excerpt: as §1

[16] = molecular target: 5-hydroxytryptamine receptor 1E (Homo sapiens, UniProt P28566)
Excerpt: as §1

[17] = molecular target: 5-hydroxytryptamine receptor 6 (Homo sapiens, UniProt P50406)
Excerpt: as §1

[18] = molecular target: D(2) dopamine receptor (Homo sapiens, UniProt P14416)
Excerpt: as §1

[19] = molecular target: 5-hydroxytryptamine receptor 2B (Homo sapiens, UniProt P41595)
Excerpt: as §1

[20] = molecular target: T5, 5-hydroxytryptamine receptor 1A (Homo sapiens, UniProt P08908)
T5 sequence (P08908 whole entry): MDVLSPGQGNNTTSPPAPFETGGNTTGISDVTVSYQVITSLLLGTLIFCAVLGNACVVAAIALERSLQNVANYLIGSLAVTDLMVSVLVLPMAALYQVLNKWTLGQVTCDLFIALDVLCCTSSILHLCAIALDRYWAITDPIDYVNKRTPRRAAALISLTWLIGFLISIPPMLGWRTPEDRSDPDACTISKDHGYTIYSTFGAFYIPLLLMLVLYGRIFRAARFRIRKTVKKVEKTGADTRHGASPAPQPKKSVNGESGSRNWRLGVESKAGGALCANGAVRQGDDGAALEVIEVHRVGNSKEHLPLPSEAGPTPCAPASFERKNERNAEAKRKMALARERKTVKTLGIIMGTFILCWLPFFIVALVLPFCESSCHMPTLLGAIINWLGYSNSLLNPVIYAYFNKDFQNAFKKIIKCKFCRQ
Excerpt: as §1

[21] = molecular target: T6, Alpha-1A adrenergic receptor (Homo sapiens, UniProt P35348)
T6 sequence (P35348 whole entry): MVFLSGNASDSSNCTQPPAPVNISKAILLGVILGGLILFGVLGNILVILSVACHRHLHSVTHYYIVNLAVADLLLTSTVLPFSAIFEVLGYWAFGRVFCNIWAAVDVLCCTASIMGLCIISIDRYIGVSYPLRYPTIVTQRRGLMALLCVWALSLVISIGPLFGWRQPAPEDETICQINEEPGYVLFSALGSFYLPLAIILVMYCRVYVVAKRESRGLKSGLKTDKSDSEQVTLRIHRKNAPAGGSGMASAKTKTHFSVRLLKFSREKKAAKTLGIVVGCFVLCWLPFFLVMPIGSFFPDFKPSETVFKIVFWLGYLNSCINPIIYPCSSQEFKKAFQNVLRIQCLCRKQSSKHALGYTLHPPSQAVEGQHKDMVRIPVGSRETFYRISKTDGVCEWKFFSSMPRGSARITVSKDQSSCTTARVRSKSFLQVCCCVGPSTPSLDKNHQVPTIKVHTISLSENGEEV
Excerpt: as §1

5-hydroxytryptamine receptor 5A, sequence (P47898 whole entry): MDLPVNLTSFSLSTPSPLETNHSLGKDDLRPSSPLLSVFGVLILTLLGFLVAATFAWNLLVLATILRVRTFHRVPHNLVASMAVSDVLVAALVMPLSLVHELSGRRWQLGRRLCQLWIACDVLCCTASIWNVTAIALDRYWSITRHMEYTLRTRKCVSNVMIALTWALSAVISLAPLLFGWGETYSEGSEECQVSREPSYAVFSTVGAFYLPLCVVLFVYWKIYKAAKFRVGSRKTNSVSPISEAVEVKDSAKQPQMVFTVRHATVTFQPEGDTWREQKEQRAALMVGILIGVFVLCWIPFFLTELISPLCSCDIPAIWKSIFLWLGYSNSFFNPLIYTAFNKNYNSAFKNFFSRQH
5-hydroxytryptamine receptor 6, sequence (P50406 whole entry): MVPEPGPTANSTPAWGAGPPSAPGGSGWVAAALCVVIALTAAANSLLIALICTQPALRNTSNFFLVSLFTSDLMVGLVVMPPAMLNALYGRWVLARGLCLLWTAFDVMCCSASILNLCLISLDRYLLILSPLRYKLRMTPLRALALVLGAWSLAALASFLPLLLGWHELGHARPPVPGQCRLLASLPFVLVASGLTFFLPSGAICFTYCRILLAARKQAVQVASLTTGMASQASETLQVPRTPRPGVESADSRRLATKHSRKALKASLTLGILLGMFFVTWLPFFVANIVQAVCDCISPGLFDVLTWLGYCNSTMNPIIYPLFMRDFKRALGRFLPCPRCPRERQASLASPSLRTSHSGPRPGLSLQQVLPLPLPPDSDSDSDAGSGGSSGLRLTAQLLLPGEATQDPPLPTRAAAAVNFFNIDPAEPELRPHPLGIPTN
5-hydroxytryptamine receptor 1E, sequence (P28566 whole entry): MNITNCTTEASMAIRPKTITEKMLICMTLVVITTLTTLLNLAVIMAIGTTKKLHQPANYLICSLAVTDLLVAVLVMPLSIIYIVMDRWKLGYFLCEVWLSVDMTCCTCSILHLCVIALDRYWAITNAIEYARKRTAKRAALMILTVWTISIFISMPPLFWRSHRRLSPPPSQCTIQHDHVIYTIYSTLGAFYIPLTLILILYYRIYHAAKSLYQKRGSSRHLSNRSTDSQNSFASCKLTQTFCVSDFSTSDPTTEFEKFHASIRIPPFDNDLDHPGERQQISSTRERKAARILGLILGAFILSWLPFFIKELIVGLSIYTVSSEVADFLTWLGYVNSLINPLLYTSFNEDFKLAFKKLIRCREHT
D(1B) dopamine receptor, sequence (P21918 whole entry): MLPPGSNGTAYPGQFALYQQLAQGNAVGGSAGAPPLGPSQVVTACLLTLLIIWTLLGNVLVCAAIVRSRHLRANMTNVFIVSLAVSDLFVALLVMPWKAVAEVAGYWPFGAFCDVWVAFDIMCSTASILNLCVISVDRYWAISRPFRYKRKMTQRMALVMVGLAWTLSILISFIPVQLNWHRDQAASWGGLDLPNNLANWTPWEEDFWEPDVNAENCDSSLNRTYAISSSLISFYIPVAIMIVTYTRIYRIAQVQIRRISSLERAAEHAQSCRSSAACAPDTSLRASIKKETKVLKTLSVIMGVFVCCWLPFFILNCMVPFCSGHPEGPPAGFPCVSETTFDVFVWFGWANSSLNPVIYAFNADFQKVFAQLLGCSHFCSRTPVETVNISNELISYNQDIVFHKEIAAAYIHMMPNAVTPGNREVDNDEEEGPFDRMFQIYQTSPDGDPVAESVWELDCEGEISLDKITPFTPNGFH
Histamine H1 receptor, sequence (P35367 whole entry): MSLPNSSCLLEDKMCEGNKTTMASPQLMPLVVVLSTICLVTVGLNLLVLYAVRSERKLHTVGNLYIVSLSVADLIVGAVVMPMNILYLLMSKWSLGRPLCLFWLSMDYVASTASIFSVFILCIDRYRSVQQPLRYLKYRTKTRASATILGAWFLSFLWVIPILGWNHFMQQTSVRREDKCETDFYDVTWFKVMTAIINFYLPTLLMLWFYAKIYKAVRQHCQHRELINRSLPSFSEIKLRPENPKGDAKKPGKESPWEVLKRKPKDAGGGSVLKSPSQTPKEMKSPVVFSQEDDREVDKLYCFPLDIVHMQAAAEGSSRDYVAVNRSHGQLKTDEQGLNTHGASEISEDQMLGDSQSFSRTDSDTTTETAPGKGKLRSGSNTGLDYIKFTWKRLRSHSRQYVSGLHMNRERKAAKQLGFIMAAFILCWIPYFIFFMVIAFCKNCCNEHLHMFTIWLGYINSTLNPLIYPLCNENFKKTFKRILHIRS
D(2) dopamine receptor, sequence (P14416 whole entry): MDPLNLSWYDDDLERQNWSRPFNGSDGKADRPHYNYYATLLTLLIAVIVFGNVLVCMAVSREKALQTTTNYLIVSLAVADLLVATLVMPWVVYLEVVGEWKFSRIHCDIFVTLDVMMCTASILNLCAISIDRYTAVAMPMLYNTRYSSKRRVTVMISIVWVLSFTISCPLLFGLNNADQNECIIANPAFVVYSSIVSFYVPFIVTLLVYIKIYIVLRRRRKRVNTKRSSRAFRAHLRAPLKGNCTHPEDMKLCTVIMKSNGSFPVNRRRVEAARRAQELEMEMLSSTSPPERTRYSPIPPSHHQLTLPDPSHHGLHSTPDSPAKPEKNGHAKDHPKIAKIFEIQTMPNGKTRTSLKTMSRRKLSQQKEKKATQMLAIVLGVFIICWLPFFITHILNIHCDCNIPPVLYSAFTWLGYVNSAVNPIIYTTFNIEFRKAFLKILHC
Kappa-type opioid receptor, sequence (P41145 whole entry): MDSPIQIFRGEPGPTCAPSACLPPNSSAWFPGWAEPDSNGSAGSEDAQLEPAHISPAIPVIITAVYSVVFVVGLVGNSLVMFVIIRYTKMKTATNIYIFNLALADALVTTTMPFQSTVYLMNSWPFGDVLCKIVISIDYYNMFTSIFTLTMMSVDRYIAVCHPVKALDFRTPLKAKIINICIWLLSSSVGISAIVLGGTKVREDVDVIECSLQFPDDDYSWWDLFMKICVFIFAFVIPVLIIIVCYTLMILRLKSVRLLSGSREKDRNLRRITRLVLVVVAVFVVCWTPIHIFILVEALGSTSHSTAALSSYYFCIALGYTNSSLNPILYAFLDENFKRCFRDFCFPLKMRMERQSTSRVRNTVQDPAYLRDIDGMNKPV
5-hydroxytryptamine receptor 2B, sequence (P41595 whole entry): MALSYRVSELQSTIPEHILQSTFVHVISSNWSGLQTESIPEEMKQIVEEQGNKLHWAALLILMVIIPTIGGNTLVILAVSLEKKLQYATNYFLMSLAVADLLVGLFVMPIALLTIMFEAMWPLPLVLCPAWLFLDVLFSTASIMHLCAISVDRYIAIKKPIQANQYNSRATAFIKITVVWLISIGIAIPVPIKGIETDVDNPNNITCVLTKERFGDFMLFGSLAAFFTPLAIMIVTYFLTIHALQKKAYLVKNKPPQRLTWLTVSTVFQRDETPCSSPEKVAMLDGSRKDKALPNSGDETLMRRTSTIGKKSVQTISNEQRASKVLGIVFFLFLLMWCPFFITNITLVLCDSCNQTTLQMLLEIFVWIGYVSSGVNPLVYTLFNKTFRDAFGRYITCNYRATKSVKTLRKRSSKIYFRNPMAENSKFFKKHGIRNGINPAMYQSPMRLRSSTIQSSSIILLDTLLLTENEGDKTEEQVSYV
Cannabinoid receptor 1, sequence (P21554 whole entry): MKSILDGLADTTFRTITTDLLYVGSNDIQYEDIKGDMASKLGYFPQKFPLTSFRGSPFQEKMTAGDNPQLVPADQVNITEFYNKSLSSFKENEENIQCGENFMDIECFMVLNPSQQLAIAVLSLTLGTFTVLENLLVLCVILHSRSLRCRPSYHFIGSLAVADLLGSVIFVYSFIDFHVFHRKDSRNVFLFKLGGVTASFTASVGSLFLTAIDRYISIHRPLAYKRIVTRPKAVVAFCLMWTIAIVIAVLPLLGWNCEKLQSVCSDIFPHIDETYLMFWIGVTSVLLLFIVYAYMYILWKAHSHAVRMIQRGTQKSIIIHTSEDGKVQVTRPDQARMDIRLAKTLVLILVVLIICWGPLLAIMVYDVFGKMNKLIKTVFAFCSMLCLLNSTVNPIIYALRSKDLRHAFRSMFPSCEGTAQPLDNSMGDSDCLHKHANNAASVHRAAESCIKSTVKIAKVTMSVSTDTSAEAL
5-hydroxytryptamine receptor 2A, sequence (P28223 whole entry): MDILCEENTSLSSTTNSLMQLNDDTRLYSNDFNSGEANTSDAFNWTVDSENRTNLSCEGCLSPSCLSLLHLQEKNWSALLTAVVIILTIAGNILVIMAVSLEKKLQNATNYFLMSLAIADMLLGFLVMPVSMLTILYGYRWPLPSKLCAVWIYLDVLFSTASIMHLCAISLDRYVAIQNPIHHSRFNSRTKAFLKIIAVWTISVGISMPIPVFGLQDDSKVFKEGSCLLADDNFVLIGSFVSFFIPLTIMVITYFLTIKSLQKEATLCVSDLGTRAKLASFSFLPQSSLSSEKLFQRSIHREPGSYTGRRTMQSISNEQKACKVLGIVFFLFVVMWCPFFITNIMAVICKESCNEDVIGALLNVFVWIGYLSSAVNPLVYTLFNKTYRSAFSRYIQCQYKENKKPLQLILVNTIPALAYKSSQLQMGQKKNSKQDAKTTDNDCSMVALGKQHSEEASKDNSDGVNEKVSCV
D(1A) dopamine receptor, sequence (P21728 whole entry): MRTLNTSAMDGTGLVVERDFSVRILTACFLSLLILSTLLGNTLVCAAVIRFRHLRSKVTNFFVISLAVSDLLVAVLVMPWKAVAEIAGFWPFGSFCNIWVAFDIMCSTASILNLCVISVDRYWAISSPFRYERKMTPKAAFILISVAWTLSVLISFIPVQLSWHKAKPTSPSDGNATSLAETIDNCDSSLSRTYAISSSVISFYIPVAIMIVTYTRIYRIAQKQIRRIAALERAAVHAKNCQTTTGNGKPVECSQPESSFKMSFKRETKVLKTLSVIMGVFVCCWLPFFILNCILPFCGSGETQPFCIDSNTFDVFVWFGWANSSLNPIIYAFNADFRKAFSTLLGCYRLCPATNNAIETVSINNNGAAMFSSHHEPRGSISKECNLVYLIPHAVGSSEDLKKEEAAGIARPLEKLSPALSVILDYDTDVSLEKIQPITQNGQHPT

CCN(CC)C(=O)N[C@H]1C=C2c3cccc4[nH]cc(c34)C[C@H]2N(C)C1 [lisuride, (S)]
Ki [1]: > 10 µM | Ki [2]: > 10 µM | Ki [3]: > 10 µM | Ki [4]: > 10 µM | Ki [5]: > 10 µM | Ki [6]: 0.077 µM | Ki [7]: > 10 µM | Ki [8]: 0.0031 µM | Ki [9]: > 10 µM | Ki [10]: > 10 µM | Ki [11]: > 10 µM

C[C@@H]1C[C@@H](C)N1C(=O)C1C=C2c3cccc4[nH]cc(c34)C[C@H]2N(C)C1 (some centres not stated) [ss-2c]
Ki [12]: 0.0024 µM | Ki [13]: 0.0192 µM | Ki [14]: 0.292 µM | Ki [15]: 2.5 µM | Ki [16]: 0.276 µM | Ki [17]: 0.0145 µM | Ki [8]: 0.0273 µM | Ki [18]: 0.0736 µM | Ki [19]: 0.027 µM | Ki [20]: 0.0004 µM | Ki [21]: 0.85 µM

Reference: BindingDB's records for PubMed 20126400 (University of Oklahoma, 2010)
